Test results reported in ChEMBL document CHEMBL3885861, “Open TG-GATES”.

Species on record: Rattus norvegicus
Test: Open TG-GATES - Regimen: Daily Repeat
Assay type: toxicity, organism-based, Sprague-Dawley
Set-up: regimen Daily Repeat, gender Male, age 6 weeks
Details: in vivo, po, 0 mg/kg, route gavage, dose level Control; for APTT / Bas / Eos / Fbg / Hb / Ht / Lym / MCH / MCHC / MCV / Mono / Neu / PT / Plat / RBC / Ret / WBC: tissue Blood; for KIDNEY_L / KIDNEY_R / KIDNEY_TOTAL: tissue Kidney; for LIVER: tissue Liver; for A/G / ALP / ALT / AST / BUN / CRE / Ca / Cl / DBIL / GLC / IP / K / LDH / Na / PL / RALB / TBIL / TC / TG / TP / gamma-GTP: tissue Plasma

Cc1cccc(C)c1OCC(C)N (configuration not stated) [MEXILETINE]
TERMINAL_BW (72 h, time 3 day): 240.8 g | APTT (72 h, time 3 day): 20.3 s | Bas (72 h, time 3 day): 0% | Eos (72 h, time 3 day): 0.8% | Fbg (72 h, time 3 day): 302.4 mg/dL | Hb (72 h, time 3 day): 12.6 g/dL | Ht (72 h, time 3 day): 39.4% | Lym (72 h, time 3 day): 81.6% | MCH (72 h, time 3 day): 19.9 pg | MCHC (72 h, time 3 day): 32.1% | MCV (72 h, time 3 day): 61.9 fL | Mono (72 h, time 3 day): 2.8% | Neu (72 h, time 3 day): 13.8% | PT (72 h, time 3 day): 15.8 s | Plat (72 h, time 3 day): 115 x10_4/uL | RBC (72 h, time 3 day): 636.6 x10_4/ul | Ret (72 h, time 3 day): 6.3% | WBC (72 h, time 3 day): 120.4 x10_2/uL | KIDNEY_L (72 h, time 3 day): 1.1 g | KIDNEY_R (72 h, time 3 day): 1.1 g | KIDNEY_TOTAL (72 h, time 3 day): 2.2 g | LIVER (72 h, time 3 day): 11.2 g | A/G (72 h, time 3 day): 1.3 | ALP (72 h, time 3 day): 1769.2 IU/L | ALT (72 h, time 3 day): 44.8 IU/L | AST (72 h, time 3 day): 72.2 IU/L | BUN (72 h, time 3 day): 15.6 mg/dL | CRE (72 h, time 3 day): 0.1 mg/dL | Ca (72 h, time 3 day): 10.4 mg/dL | Cl (72 h, time 3 day): 106 meq/L | DBIL (72 h, time 3 day): 0 mg/dL | GLC (72 h, time 3 day): 201.2 mg/dL | IP (72 h, time 3 day): 7.6 mg/dL | K (72 h, time 3 day): 4.4 meq/L | LDH (72 h, time 3 day): 178 IU/L | Na (72 h, time 3 day): 142 meq/L | PL (72 h, time 3 day): 134 mg/dL | RALB (72 h, time 3 day): 3 g/dL | TBIL (72 h, time 3 day): 0.008 mg/dL | TC (72 h, time 3 day): 73.2 mg/dL | TG (72 h, time 3 day): 69.6 mg/dL | TP (72 h, time 3 day): 5.4 g/dL | gamma-GTP (72 h, time 3 day): 2.2 IU/L | TERMINAL_BW ([…], time 7 day): 274.3 g | TERMINAL_BW ([…], time 14 day): 321.8 g | TERMINAL_BW ([…], time 28 day): 408.3 g | APTT ([…], time 7 day): 23.4 s | Bas ([…], time 7 day): 0% | Eos ([…], time 7 day): 1% | Fbg ([…], time 7 day): 300 mg/dL | Hb ([…], time 7 day): 12.9 g/dL | Ht ([…], time 7 day): 39.7% | Lym ([…], time 7 day): 77.8% | MCH ([…], time 7 day): 20.4 pg | MCHC ([…], time 7 day): 32.5% | MCV ([…], time 7 day): 62.4 fL | Mono ([…], time 7 day): 2.8% | Neu ([…], time 7 day): 17.4% | PT ([…], time 7 day): 15.9 s | Plat ([…], time 7 day): 106.5 x10_4/uL | RBC ([…], time 7 day): 637.2 x10_4/ul | Ret ([…], time 7 day): 6% | WBC ([…], time 7 day): 115.8 x10_2/uL | APTT ([…], time 14 day): 22.2 s | Bas ([…], time 14 day): 0% | Eos ([…], time 14 day): 0.8% | Fbg ([…], time 14 day): 310.6 mg/dL | Hb ([…], time 14 day): 12.8 g/dL | Ht ([…], time 14 day): 39.4% | Lym ([…], time 14 day): 80.6% | MCH ([…], time 14 day): 21 pg | MCHC ([…], time 14 day): 32.4% | MCV ([…], time 14 day): 64.8 fL | Mono ([…], time 14 day): 1.8% | Neu ([…], time 14 day): 16.2% | PT ([…], time 14 day): 16.1 s | Plat ([…], time 14 day): 107.7 x10_4/uL | RBC ([…], time 14 day): 608.6 x10_4/ul | Ret ([…], time 14 day): 8.8% | WBC ([…], time 14 day): 96.5 x10_2/uL | APTT ([…], time 28 day): 25.3 s | Bas ([…], time 28 day): 0% | Eos ([…], time 28 day): 1% | Fbg ([…], time 28 day): 307.6 mg/dL | Hb ([…], time 28 day): 14.8 g/dL | Ht ([…], time 28 day): 43.5% | Lym ([…], time 28 day): 83.2% | MCH ([…], time 28 day): 19.2 pg | MCHC ([…], time 28 day): 34.1% | MCV ([…], time 28 day): 56.3 fL | Mono ([…], time 28 day): 1.6% | Neu ([…], time 28 day): 13.8% | PT ([…], time 28 day): 16.1 s | Plat ([…], time 28 day): 91.8 x10_4/uL | RBC ([…], time 28 day): 774.2 x10_4/ul | Ret ([…], time 28 day): 2.9% | WBC ([…], time 28 day): 104.4 x10_2/uL | KIDNEY_L ([…], time 7 day): 1.2 g | KIDNEY_R ([…], time 7 day): 1.2 g | KIDNEY_TOTAL ([…], time 7 day): 2.3 g | KIDNEY_L ([…], time 14 day): 1.3 g | KIDNEY_R ([…], time 14 day): 1.3 g | KIDNEY_TOTAL ([…], time 14 day): 2.5 g | KIDNEY_L ([…], time 28 day): 1.4 g | KIDNEY_R ([…], time 28 day): 1.5 g | KIDNEY_TOTAL ([…], time 28 day): 2.9 g | LIVER ([…], time 7 day): 13.3 g | LIVER ([…], time 14 day): 14.2 g | LIVER ([…], time 28 day): 16.9 g | A/G ([…], time 7 day): 1.1 | ALP ([…], time 7 day): 1475.8 IU/L | ALT ([…], time 7 day): 42.2 IU/L | AST ([…], time 7 day): 65 IU/L | BUN ([…], time 7 day): 20.4 mg/dL | CRE ([…], time 7 day): 0.2 mg/dL | Ca ([…], time 7 day): 10.7 mg/dL | Cl ([…], time 7 day): 105 meq/L | DBIL ([…], time 7 day): 0 mg/dL | GLC ([…], time 7 day): 200.4 mg/dL | IP ([…], time 7 day): 7.5 mg/dL | K ([…], time 7 day): 4.2 meq/L | LDH ([…], time 7 day): 152.8 IU/L | Na ([…], time 7 day): 141.4 meq/L | PL ([…], time 7 day): 152.6 mg/dL | RALB ([…], time 7 day): 3 g/dL | TBIL ([…], time 7 day): 0.002 mg/dL | TC ([…], time 7 day): 80.2 mg/dL | TG ([…], time 7 day): 113.4 mg/dL | TP ([…], time 7 day): 5.6 g/dL | gamma-GTP ([…], time 7 day): 2 IU/L | A/G ([…], time 14 day): 1.1 | ALP ([…], time 14 day): 1564.4 IU/L | ALT ([…], time 14 day): 45.6 IU/L | AST ([…], time 14 day): 68.8 IU/L | BUN ([…], time 14 day): 19 mg/dL | CRE ([…], time 14 day): 0.2 mg/dL | Ca ([…], time 14 day): 10.6 mg/dL | Cl ([…], time 14 day): 104.6 meq/L | DBIL ([…], time 14 day): 0 mg/dL | GLC ([…], time 14 day): 211.6 mg/dL | IP ([…], time 14 day): 7.1 mg/dL | K ([…], time 14 day): 4.2 meq/L | LDH ([…], time 14 day): 164.6 IU/L | Na ([…], time 14 day): 140.6 meq/L | PL ([…], time 14 day): 147.8 mg/dL | RALB ([…], time 14 day): 3 g/dL | TBIL ([…], time 14 day): 0.004 mg/dL | TC ([…], time 14 day): 70.2 mg/dL | TG ([…], time 14 day): 143 mg/dL | TP ([…], time 14 day): 5.8 g/dL | gamma-GTP ([…], time 14 day): 2.2 IU/L | A/G ([…], time 28 day): 0.9 | ALP ([…], time 28 day): 1046.8 IU/L | ALT ([…], time 28 day): 37.2 IU/L | AST ([…], time 28 day): 61.8 IU/L | BUN ([…], time 28 day): 19.2 mg/dL | CRE ([…], time 28 day): 0.2 mg/dL | Ca ([…], time 28 day): 10.5 mg/dL | Cl ([…], time 28 day): 104.2 meq/L | DBIL ([…], time 28 day): 0 mg/dL | GLC ([…], time 28 day): 194.8 mg/dL | IP ([…], time 28 day): 6.6 mg/dL | K ([…], time 28 day): 3.8 meq/L | LDH ([…], time 28 day): 132.8 IU/L | Na ([…], time 28 day): 143.2 meq/L | PL ([…], time 28 day): 135 mg/dL | RALB ([…], time 28 day): 3 g/dL | TBIL ([…], time 28 day): 0.01 mg/dL | TC ([…], time 28 day): 67.8 mg/dL | TG ([…], time 28 day): 133.6 mg/dL | TP ([…], time 28 day): 6.2 g/dL | gamma-GTP ([…], time 28 day): 2 IU/L
